Experimental data published in patent US12115373B2, “Methods for reducing the risk of strokes by pharmacotherapy to reduce the number and duration of atrial fibrillations” (Xyra, LLC, priority 2022, dated 2024).

Columns and labels:
[1] = test system: patients with either paroxysmal or persistent AFib; assay: Clinical trial: episodes of longer duration AFib (>24 hrs), pacemaker monitoring (Example 3); format: in vivo; conditions: 2-week period; for Episodes of AFib > 24 hrs: Duration / Episodes of AFib > 24 hrs: Number: 6 patients
Protocol: (§1) This example is a clinical trial evaluation of budiodarone in treating 6 patients with either paroxysmal or persistent AFib who previously evidenced episodes of long duration AFib (greater than 24 hrs). In this example, the patients' heart rhythms were continuously monitored over a twelve-week period with a pacemaker (surgically invasive procedure) and were treated with different doses (2 weeks each) of budiodarone. In addition, during this trial, the patients were under continuous monitoring and constant clinician supervision.
The purpose of this example is to establish whether budiodarone treatment can reduce longer duration AFib (AFib episodes lasting more than 24 hours) in a clinical study setting and using a pacemaker to evaluate heart rhythm.
“Number” indicates the number of longer duration episodes of AFib (i.e., having a duration of greater than 24 hours). “Duration” indicates the amount of time during the 2-week period spent in the longer duration indicated in hours and a percentage relative to the baseline measurement. As per the above results, 200 mg b.i.d. was sufficient to treat all patients in the study by eliminating the number of episodes of AFib lasting over 24 hours. In this case, dose escalation was not required to improve patient efficacy as the 200 mg bid doses of budiodarone were sufficient to eliminate these long duration episodes of AFib.

[2] = test system: patients with either paroxysmal or persistent AFib; assay: Clinical trial: episodes of long duration AFib (>5 hrs), pacemaker monitoring (Example 4); format: in vivo; conditions: for Episodes of AFib > 5 hrs: Duration, percentage relative to the baseline / Episodes of AFib > 5 hrs: Duration / Episodes of AFib > 5 hrs: Number: 2 week period; for Episodes of AFib > 5 hrs: Duration / Episodes of AFib > 5 hrs: Number: 6 patients
Protocol: as §1, with “5” for “24”
The purpose of this example is to establish whether budiodarone reduces long duration AFib lasting more than 5 hours in a clinical study setting using a pacemaker to evaluate the heart rhythm.
“Number” indicates the number of long duration episodes of AFib having a duration of greater than 5 hours. “Duration” indicates the amount of time during the 2 week period spent in the greater than 5 hour duration AFib, indicated in hours and a percentage relative to the baseline measurement. […] Finally, the 800 mg bid performed best. In all doses, the reduction in episodes of AFib of greater than 5 hours were above 85% and the corresponding reduction in AFib burden was above 90%.

[3] = test system: patients with either paroxysmal or persistent AFib; assay: Clinical trial: episodes of long duration AFib (>1 hr), pacemaker monitoring (Example 5); format: in vivo; conditions: 2 week period; for Episodes of AFib > 1 hrs: Duration / Episodes of AFib > 1 hrs: Number: 6 patients
Protocol: as §1, with “1 hour).” for “24 hrs).”
The purpose of this example is to establish whether budiodarone reduces long duration AFib (duration >1 hr) in a clinical study setting using a pacemaker to evaluate the heart rhythm.
As above, “Number” indicates a number of long duration AFib episodes during the 2 week period, and “Duration” indicates a number of hours during the 2 week period sent in the long duration AFib episodes

[4] = test system: patients with either paroxysmal or persistent AFib; assay: Clinical trial: episodes of AFib greater than 6 minutes (0.1 hour), pacemaker monitoring (Example 6); format: in vivo; conditions: for Episodes of AFib > 0.1 hrs: Duration, percent of Off Drug (baseline) / Episodes of AFib > 0.1 hrs: Number, percent of Off Drug (baseline): 2 weeks (baseline 4 weeks); for Episodes of AFib > 0.1 hrs: Number / Episodes of AFib > 0.1 hrs: Duration: all tested patients, 2 weeks; for Episodes of AFib > 0.1 hrs: Duration: cumulative; for Episodes of AFib > 0.1 hrs: Fraction of hours: hours in AFib / hours monitored
Protocol: In this example, the patients' heart rhythm was continuously monitored over a twelve-week period with a pacemaker. The patients were treated with different doses (2 weeks each) of budiodarone. In addition, during this trial, the patients were under continuous monitoring and clinician supervision.
The “Number” indicates the number of AFib episodes greater than 6 minutes for all tested patients over the trial period (4 weeks for based line, 2 weeks experimental). The “Duration” in hours indicates the cumulative duration in hours over the trial period that the tested patients were measured in episodes of AFib greater than 6 minutes.
Table 8 provides a summary of the fraction of time and the number of hours per week that the patients were in episodes of AFib greater than 6 minutes in duration, on average. The percent time in AFib was reduced by 90% for doses of budiodarone at 600 mg bid and 800 mg bid.

[5] = Serum half-life of budiodarone; format: in vivo; conditions: human
[6] = in vivo; cited from earlier work

- half-life ([5]; after administration): 6 to 7 h
- time to reach steady state ([5]; read-out: steady state (about 5x the serum half-life)): 1800 to 2100 min
Compound: CC[C@H](C)OC(=O)Cc1oc2ccccc2c1C(=O)c1cc(I)c(OCCN(CC)CC)c(I)c1 [budiodarone, (S)-sec-butyl2-(3-(4-(2-(diethylamino)ethoxy)-3,5-diiodobenzoyl)benzofuran-2-yl)acetate]
- Episodes of AFib > 24 hrs: Duration, percentage relative to the baseline ([1]; 200 mg bid): (0%)
- Episodes of AFib > 24 hrs: Duration ([1]; 200 mg bid): 0 h
- Episodes of AFib > 24 hrs: Number ([1]; 200 mg bid): 0
- Episodes of AFib > 24 hrs: Duration, percentage relative to the baseline ([1]; 400 mg bid): (0%)
- Episodes of AFib > 24 hrs: Duration ([1]; 400 mg bid): 0 h
- Episodes of AFib > 24 hrs: Number ([1]; 400 mg bid): 0
- Episodes of AFib > 24 hrs: Duration, percentage relative to the baseline ([1]; 600 mg bid): (0%)
- Episodes of AFib > 24 hrs: Duration ([1]; 600 mg bid): 0 h
- Episodes of AFib > 24 hrs: Number ([1]; 600 mg bid): 0
- Episodes of AFib > 24 hrs: Duration, percentage relative to the baseline ([1]; 800 mg bid): (0%)
- Episodes of AFib > 24 hrs: Duration ([1]; 800 mg bid): 0 h
- Episodes of AFib > 24 hrs: Number ([1]; 800 mg bid): 0
- Episodes of AFib > 5 hrs: Duration, percentage relative to the baseline ([2]; 200 mg bid): (3.5%)
- Episodes of AFib > 5 hrs: Duration ([2]; 200 mg bid): 17 h
- Episodes of AFib > 5 hrs: Number ([2]; 200 mg bid): 3
- Episodes of AFib > 5 hrs: Duration, percentage relative to the baseline ([2]; 400 mg bid): (7.7%)
- Episodes of AFib > 5 hrs: Duration ([2]; 400 mg bid): 38 h
- Episodes of AFib > 5 hrs: Number ([2]; 400 mg bid): 4
- Episodes of AFib > 5 hrs: Duration, percentage relative to the baseline ([2]; 600 mg bid): (2.8%)
- Episodes of AFib > 5 hrs: Duration ([2]; 600 mg bid): 14 h
- Episodes of AFib > 5 hrs: Number ([2]; 600 mg bid): 2
- Episodes of AFib > 5 hrs: Duration, percentage relative to the baseline ([2]; 800 mg bid): (1%)
- Episodes of AFib > 5 hrs: Duration ([2]; 800 mg bid): 5 h
- Episodes of AFib > 5 hrs: Number ([2]; 800 mg bid): 1
- corresponding reduction in AFib burden (episodes > 5 hours) ([2]; in all doses (200-800 mg bid)): above 90%
- reduction in episodes of AFib of greater than 5 hours ([2]; in all doses (200-800 mg bid)): above 85%
- Episodes of AFib > 1 hrs: Duration, percent of Off Drug (baseline) ([3]; 200 mg bid): (10%)
- Episodes of AFib > 1 hrs: Duration ([3]; 200 mg bid): 60 h
- Episodes of AFib > 1 hrs: Number ([3]; 200 mg bid): 22
- Episodes of AFib > 1 hrs: Duration, percent of Off Drug (baseline) ([3]; 400 mg bid): (9.3%)
- Episodes of AFib > 1 hrs: Duration ([3]; 400 mg bid): 56 h
- Episodes of AFib > 1 hrs: Number ([3]; 400 mg bid): 12
- Episodes of AFib > 1 hrs: Duration, percent of Off Drug (baseline) ([3]; 600 mg bid): (4.3%)
- Episodes of AFib > 1 hrs: Duration ([3]; 600 mg bid): 26 h
- Episodes of AFib > 1 hrs: Number ([3]; 600 mg bid): 6
- Episodes of AFib > 1 hrs: Duration, percent of Off Drug (baseline) ([3]; 800 mg bid): (2.5%)
- Episodes of AFib > 1 hrs: Duration ([3]; 800 mg bid): 15 h
- Episodes of AFib > 1 hrs: Number ([3]; 800 mg bid): 6
- Episodes of AFib > 0.1 hrs: Duration in hrs/week (average per patient) ([4]; 200 mg bid): 5.9 hrs/week
- Episodes of AFib > 0.1 hrs: Fraction of hours (percent), percent time in AFib ([4]; 200 mg bid): (3.5%)
- Episodes of AFib > 0.1 hrs: Duration, percent of Off Drug (baseline) ([4]; 200 mg bid): 11%
- Episodes of AFib > 0.1 hrs: Number, percent of Off Drug (baseline) ([4]; 200 mg bid): 52 (52%)
- Episodes of AFib > 0.1 hrs: Number ([4]; 200 mg bid): 52 (52%)
- Episodes of AFib > 0.1 hrs: Duration ([4]; 200 mg bid): 71 h
- Episodes of AFib > 0.1 hrs: Fraction of hours ([4]; 200 mg bid): 71/2016
- drop in percent time in AFib ([4]; 200 mg twice a day): 76.7%
- Episodes of AFib > 0.1 hrs: Duration in hrs/week (average per patient) ([4]; 400 mg bid): 5 hrs/week
- Episodes of AFib > 0.1 hrs: Fraction of hours (percent), percent time in AFib ([4]; 400 mg bid): (3.0%)
- Episodes of AFib > 0.1 hrs: Duration, percent of Off Drug (baseline) ([4]; 400 mg bid): 10%
- Episodes of AFib > 0.1 hrs: Number, percent of Off Drug (baseline) ([4]; 400 mg bid): 28 (28%)
- Episodes of AFib > 0.1 hrs: Number ([4]; 400 mg bid): 28 (28%)
- Episodes of AFib > 0.1 hrs: Duration ([4]; 400 mg bid): 61 h
- Episodes of AFib > 0.1 hrs: Fraction of hours ([4]; 400 mg bid): 61/2016
- Episodes of AFib > 0.1 hrs: Duration in hrs/week (average per patient) ([4]; 600 mg bid): 2.5 hrs/week
- Episodes of AFib > 0.1 hrs: Fraction of hours (percent), percent time in AFib ([4]; 600 mg bid): (1.5%)
- reduction of percent time in AFib ([4]; 600 mg bid and 800 mg bid (Table 8)): 90%
- reduction of the number of episodes of AFib longer than 6 minutes ([4]; 600 mg bid or 800 mg bid): more than 80%
- Episodes of AFib > 0.1 hrs: Duration, percent of Off Drug (baseline) ([4]; 600 mg bid): 4.8%
- Episodes of AFib > 0.1 hrs: Number, percent of Off Drug (baseline) ([4]; 600 mg bid): 16 (16%)
- Episodes of AFib > 0.1 hrs: Number ([4]; 600 mg bid): 16 (16%)
- Episodes of AFib > 0.1 hrs: Duration ([4]; 600 mg bid): 30 h
- Episodes of AFib > 0.1 hrs: Fraction of hours ([4]; 600 mg bid): 30/2016
- drop in percent time in AFib ([4]; 600 mg twice a day): 90%
- Episodes of AFib > 0.1 hrs: Duration in hrs/week (average per patient) ([4]; 800 mg bid): 1.3 hrs/week
- Episodes of AFib > 0.1 hrs: Fraction of hours (percent), percent time in AFib ([4]; 800 mg bid): (0.8%)
- Episodes of AFib > 0.1 hrs: Duration, percent of Off Drug (baseline) ([4]; 800 mg bid): 2.5%
- Episodes of AFib > 0.1 hrs: Number, percent of Off Drug (baseline) ([4]; 800 mg bid): 15 (15%)
- Episodes of AFib > 0.1 hrs: Number ([4]; 800 mg bid): 15 (15%)
- Episodes of AFib > 0.1 hrs: Duration ([4]; 800 mg bid): 16 h
- Episodes of AFib > 0.1 hrs: Fraction of hours ([4]; 800 mg bid): 16/2016
- drop in percent time in AFib ([4]; 800 mg twice a day): 94.8%
- increase in the QT interval [6]: without a significant increase in the QT interval
